Laboratory results: patent US8455240B2, “Use of thermophilic sulphate-reducing archaea for the implementation of a process for the degradation of hydrocarbons” (Institut de Recherche pour le Development (I.R.D.), priority 2005, dated 2013)
Where “and” joins values, the source holds several entries; their conditions need not be identical. Equal values may be shown once. Marks after values point to notes of the source that are not given here.

How the values were obtained:
strain L-3 [1] = assay: Sources of carbon and energy used by the strain L-3; format: cell-based, Archaeoglobus fulgidus CNCM I-3465 (strain L-3); settings: for OD 580 nm Final / H2S (480 nm) / OD 580 nm Initial: thiosulphate as electron acceptor; for H2S (480 nm): unit from b126
Experimental: (§1) Experimentally, 4 ml of Cord-Ruwish reagent comprising 50 mmol/l of HCl and 5 mmol/l of CuSO4 are added to 0.1 ml of sample. Copper sulphate (CuSO4) by reacting with hydrogen sulphide (H2S), forms a copper sulphide precipitate (CuS) after the reaction: CuSO4+H2S→CuS+H2SO4
(§2) According to this method, the CuS is assayed by spectrophotometry at 480 nm. The readings are carried out against a blank constituted by 4 ml of Cord-Ruwish reagent.
The analysis and quantification of the metabolites are carried out by HPLC by measuring the disappearance of the substrate and the appearance of different metabolism products.
The study of the growth of the strain L-3 in the presence of different sources of carbon and energy was carried out with thiosulphate as an electron acceptor. The monitoring was carried out by estimation of the cell biomass (OD 580 nm), by assay of the sulphide production (Cord-Ruwish). The results were confirmed by HPLC analyses, and completed in certain cases by a CO2 assay.

[2] = test system: Archaeoglobus fulgidus DSM 4304; assay: Monitoring of thiosulphate during the degradation of fatty acids by A. fulgidus; format: cell-based; settings: E1/E2 replicates; for thiosulphate, time 0: time 0 (Jul. 4, 2005), butyrate, valerate 5 mM, others 2 mM
Experimental: (§3) The thiosulphate and sulphate assays are carried out by ion chromatography.
(§4) The analyses are carried out with a chromatograph (Compact IC 761, Metrohm) equipped with: • A […] ion-exchange column (Metrosep A SUPP 1-250 (6.1005.300)), size 4.6*250 mm; • The eluent used is Na2CO3 at a concentration of 3 mmol/l, at a flow rate of 1 to 2.5 ml/min; ((→the flow rate varies during the analysis)) • A sample processor (Metrohm 838); • A conductimeter; • A computer where the results are recorded, integrated and analyzed by software (761 Compact IC, Metrohm). III.3.2. Operating Method
(§5) The operating conditions are such that the temperature is 20° C. and the pressure is 5 MPa. The samples to be analyzed are filtered. The injection volume is 20 μl. The detection is of conductimetric electrochemical type with chemical suppression allowing elution gradients.
(§6) Monitoring of thiosulphate during the degradation of fatty acids by A. fulgidus and by L-3

strain L-3 [3] = assay: Monitoring of thiosulphate during the degradation of fatty acids by L-3; format: cell-based, Archaeoglobus fulgidus CNCM I-3465 (strain L-3); settings: E1/E2 replicates; for thiosulphate, time 0: time 0 (Feb. 5, 2005)
Experimental: as §3, §4, §5, §6

Archaeoglobus fulgidus = assay: Screening for hydrocarbon degradation, A. fulgidus (sulphide production, Cord-Ruwish); format: cell-based; settings: for ΔS tf-ti: final minus initial sulphide
Experimental: as §1, §2
The study of the hydrocarbon degradation abilities is an experiment which requires a particularly long incubation. Thus, it was carried out in Bellco tubes sealed with thick rubber stoppers.
For these experiments, tubes containing 10 ml of culture medium without substrate, are 10% inoculated, then the hydrocarbon is introduced by injection through the stopper.
The hydrocarbons chosen are model molecules belonging to the different classes of hydrocarbons, namely: • hexadecane (CH3(CH2)14CH3, C16), a saturated linear aliphatic hydrocarbon; • hexadecene (CH3(CH2)13CHCH2, C16:1), an unsaturated linear aliphatic hydrocarbon of biogenic origin; • dibenzothiophene (DBT, C12H8S), a sulphur-containing aromatic hydrocarbon.
The aliphatic hydrocarbons (C16; C16:1) are added to the corresponding tubes, at a rate of 0.04 ml/10 ml of culture medium. The aromatic hydrocarbons (DBT) are solubilized in 2,2,4,4,6,8,8-heptamethylnonane (HMN, C16H34) at a rate of 20 mg/ml of HMN, and 0.75 ml of this solution is injected into 10 ml of culture medium.
3 tubes were produced for each test and control. The growth of the strains was monitored indirectly by the production of sulphide.
A subculture was carried out starting from the preceding experiment on naphthalene, DBT solubilized as previously in HMN, and on HMN alone, for the two strains studied.

Molecule | OD 580 nm Final (strain L-3 [1]) | H2S (480 nm) (strain L-3 [1]) | OD 580 nm Initial (strain L-3 [1]) | thiosulphate, time 0 (strain L-3 [3]) | also measured
O=C[C@H](O)[C@H](O)[C@H](O)CO [Ribose, ribose] | 0.3422 and 0.21 | 0.6 mM and 0.5 mM |  |  | HPLC analyses, initial quantity of the substrate (strain L-3 [1]; no increase in biomass or sulphide, explained by isomerization at high temperature): reduction in the initial quantity of the substrate
O=C(O)CCC(=O)O [Succinate] | 0.0659 and 0.0672 | 0.3 mM | 0.0845 and 0.0791 |  | 
CCCC(=O)O [butyrate] |  |  |  | 15.45 mM | thiosulphate, end of May 2005 [2]: 9.29 mM; thiosulphate, time 0 [2]: 12.51 mM
CCCCCCCCC(=O)O [nonanoate] |  |  |  |  | thiosulphate, end of May 2005 ([2]; listed as C9 fatty acid): 7.65 mM and 10.52 mM
CCCCCCCC(=O)O [octanoate] |  |  |  |  | thiosulphate, end of May 2005 ([2]; listed as C8 fatty acid): 8.2 mM and 9.27 mM; thiosulphate, end of May 2005 (strain L-3 [3]; end of May 2005, listed as C8 fatty acid): 9.56 and mM and 9.33 mM
CCCCCCCCCCCCCCCC(=O)O [palmitate] |  |  |  | 15.52 mM | thiosulphate, end of May 2005 [2]: 9.12 mM; thiosulphate, time 0 [2]: 11.54 mM
CCCCCCCCCCCCCCCCCC(=O)O [stearate] |  |  |  | 14.64* mM | thiosulphate, end of May 2005 ([2]; listed as C18 fatty acid): 10.55 mM and 7.05 mM
Gelatin | 0.0743 and 0.0767 | 0.3 mM and 0.2 mM | 0.0629 and 0.0894 |  | 
Starch |  | 0.8 mM and 0.7 mM | 0.8834 and 0.8614 |  | 
hexadecene [C16:1] |  |  |  |  | sulphide production (OD 480) 0 d (Archaeoglobus fulgidus; 0 d, aromatics solubilized in HMN): 0.8 mM and 0.6 mM; sulphide production (OD 480) 45 d (Archaeoglobus fulgidus; 45 d): 3.6 mM and 4.3 mM; ΔS tf-ti (Archaeoglobus fulgidus): approximately 3 mM; ΔS tf-ti (Archaeoglobus fulgidus; listed as C16: 1): 2.8 mM and 3.0 mM and 3.5 mM
